From patent US20070167353A1, “PRODRUG COMPOSITION” (priority 2003, published 2007)

What was measured:
HPEPT1 [1] = target: T1, HPEPT1 (Homo sapiens, UniProt P46059); assay: Inhibition of radiolabelled Gly-Sar uptake in DC5 cells overexpressing HPEPT1; format: cell-based; parameters: expressed in transfected cells; host or cells: HeLa cells overexpressing hPEPT1 (called 'HPEPT1 infected cells'); conditions: inhibition of Gly-Sar uptake, DC5 cells overexpressing HPEPT1, 10 min, 37° C.; read-out: DC5 IC50
T1 sequence (P46059 1-708): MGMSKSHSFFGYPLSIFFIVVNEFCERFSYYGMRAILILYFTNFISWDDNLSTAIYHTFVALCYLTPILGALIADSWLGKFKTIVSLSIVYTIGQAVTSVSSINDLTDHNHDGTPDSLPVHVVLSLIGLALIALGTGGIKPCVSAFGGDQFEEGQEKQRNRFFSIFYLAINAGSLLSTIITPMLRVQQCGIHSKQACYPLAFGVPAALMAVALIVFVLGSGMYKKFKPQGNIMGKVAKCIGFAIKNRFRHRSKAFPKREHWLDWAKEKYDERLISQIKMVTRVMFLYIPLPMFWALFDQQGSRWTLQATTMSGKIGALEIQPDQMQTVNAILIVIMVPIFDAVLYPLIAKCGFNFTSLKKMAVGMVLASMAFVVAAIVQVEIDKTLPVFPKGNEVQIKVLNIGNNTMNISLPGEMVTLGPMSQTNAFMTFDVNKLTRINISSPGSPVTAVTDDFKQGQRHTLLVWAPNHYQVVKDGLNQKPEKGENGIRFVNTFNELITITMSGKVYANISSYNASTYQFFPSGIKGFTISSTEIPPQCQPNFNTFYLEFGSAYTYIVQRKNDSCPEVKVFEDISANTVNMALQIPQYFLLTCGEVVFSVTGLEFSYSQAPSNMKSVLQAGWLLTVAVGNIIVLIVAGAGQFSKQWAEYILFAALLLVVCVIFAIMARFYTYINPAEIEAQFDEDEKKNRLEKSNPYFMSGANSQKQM
Experimental: Amino acid prodrugs are tested for their interaction with the dipeptide transporter, HPEPT1, using tissue culture cells that are engineered to overexpress HPEPT1. In this example, the cells that overexpress HPEPT1, termed DC5, are a human meduloblastoma cell line that is stably transfected with a eukaryotic expression vector encoding HPEPT1. […] DC5 cells are plated at a density of 12,000 cells/well in 96-well tissue culture plates and allowed to grow for 2 days. The cells are washed once with 200 microliters of uptake buffer and aspirated. The plates are cooled to 4° C. and 25 ul of uptake buffer containing 125 nanomoles Gly-Sar (at a specific activity of 1 microcurie/micromole) is added. The uptake buffer also contains the prodrugs to be tested at concentrations ranging from 10 micromolar to 20 millimolar. The assay is initiated by placing the plate in a shaking water bath at 37° C. and is terminated after 10 min by rapid washing with multiple changes of 4° C. phosphate buffered saline (PBS). The radioactive Gly-Sar peptide that is transported by the hpept1 is extracted from the cell layer with 200 ul of a one to one mixture of methanol and water and is counted in 4 ml of CytoScint ES™ scintillation cocktail (ICN). The data are plotted as % Gly-Sar uptake of control (no competitive substrate) versus the competitive substrate concentration. […] Typically, values that are below 10 mM indicate that the drug interacts with transporter.

[2] = not given; remark: listed apart in the source
[3] = not given; remark: listed apart in the source
HPEPT1 [4] = target: T1, HPEPT1; conditions: for Uptake (hPepT1): HeLa cells overexpressing HPEPT1, 50 micromolar, pH 6.0, 45 minutes; for hPepT1/Control: ratio of uptake in hPepT1 cells versus control cells

IC50 (HPEPT1 [1]) [mM] | Structure (SMILES) | t1/2 Caco-2 cell homogenates [min] | t1/2 Human plasma [2] [min] | t1/2 Buffer pH 7.4 [3] [min] | Uptake (hPepT1) (HPEPT1 [4]) | hPepT1/Control (HPEPT1 [4])
> 20 | O=c1[nH]c(=O)n([C@H]2C[C@H](O)[C@@H](CO)O2)cc1F [Floxuridine, reference compound] |  |  |  |  | 
 | CC(C)[C@@H](N)C(=O)OC[C@H]1O[C@@H](n2ccc(N)nc2=O)C(F)(F)[C@@H]1O [5′-O-D-valyl Gemcitabine] | 37.4 ± 1.4 | 58.1 ± 2.1 | 424.0 ± 1.2 | 1.14 ± 0.04 nmole/mg/45 min | 1.58
> 25 | Nc1nc2c(ncn2COCCO)c(=O)[nH]1 [Acyclovir, reference compound] |  |  |  |  | 
 | CC(C)[C@@H](N)C(=O)O[C@@H]1[C@@H](CO)O[C@@H](n2ccc(N)nc2=O)C1(F)F [3′-O-D-valyl Gemcitabine] | 23.2 ± 0.2 | 5.99 ± 0.0 | 74.0 ± 1.2 | 0.81 ± 0.02 nmole/mg/45 min | 1.06
 | Nc1ccn([C@@H]2O[C@H](CO)[C@@H](OC(=O)[C@H](N)Cc3ccccc3)C2(F)F)c(=O)n1 [3′-O-D-phenylalanyl Gemcitabine] | 8.8 ± 0.1 | 7.7 ± 0.2 | 39.0 ± 0.7 | Not detected | 
> 20 | Nc1nc(O)c2ncn(COC(CO)CO)c2n1 [Ganciclovir, reference compound] |  |  |  |  | 
 | CC(C)[C@@H](N)C(=O)OC[C@H]1O[C@@H](n2ccc(N)nc2=O)C(F)(F)[C@@H]1OC(=O)[C@H](N)C(C)C [3′,5′-di-O-D-valyl gemcitabine] | 10.3 ± 0.7 | 2.1 ± 0.1 | 52.0 ± 1.1 | 1.11 ± 0.08 nmole/mg/45 min | 1.13
 | Nc1ccn([C@@H]2O[C@H](CO)[C@@H](OC(=O)[C@@H](N)Cc3ccccc3)C2(F)F)c(=O)n1 [3′-O-L-phenylalanyl Gemcitabine] | 0.8 ± 0.0 | 5.7 ± 0.1 | 39.0 ± 0.12 | Not detected | 
> 20 | Nc1ccn([C@@H]2O[C@H](CO)[C@@H](O)C2(F)F)c(=O)n1 [Gemcitabine, reference compound] |  |  |  |  | 
 | Nc1ccn([C@@H]2O[C@H](COC(=O)[C@H](N)Cc3ccccc3)[C@@H](OC(=O)[C@H](N)Cc3ccccc3)C2(F)F)c(=O)n1 [3′,5′-di-O-D-phenylalanyl Gemcitabine] | 8.3 ± 0.6 | 2.4 ± 0.2 | 28.0 ± 0.6 | Not detected | 
 | Nc1ccn([C@@H]2O[C@H](COC(=O)[C@@H](N)Cc3ccccc3)[C@@H](O)C2(F)F)c(=O)n1 [5′-O-L-phenylalanyl Gemcitabine] | 3.2 ± 0.1 | 8.4 ± 0.2 | 200.0 ± 1.9 | Not detected | 
 | Nc1ccn([C@@H]2O[C@H](COC(=O)[C@@H](N)Cc3ccccc3)[C@@H](OC(=O)[C@@H](N)Cc3ccccc3)C2(F)F)c(=O)n1 [3′,5′-di-O-L-phenylalanyl gemcitabine] | 0.6 ± 0.0 | 0.7 ± 0.0 | 38.0 ± 0.2 | Not detected | 
 | Nc1ccn([C@@H]2O[C@H](COC(=O)[C@H](N)Cc3ccccc3)[C@@H](O)C2(F)F)c(=O)n1 [5′-O-D-phenylalanyl Gemcitabine] | 11.4 ± 0.2 | 34.8 ± 1.1 | 204.0 ± 3.5 | Not detected | 

Structure (SMILES) | IC50 (HPEPT1 [1]) [mM] | t1/2 Caco-2 cell homogenates [min] | t1/2 Human plasma [2] [min] | t1/2 Buffer pH 7.4 [3] [min] | Uptake (hPepT1) (HPEPT1 [4]) | hPepT1/Control (HPEPT1 [4])
O=C(OCC1OC(n2cc(F)c(=O)[nH]c2=O)CC1OC(=O)C1CCCN1)C1CCCN1 (stereo not shown) [3′,5′-di-O-prolyl-Floxuridine] | > 20 |  |  |  |  | 
O=C(OC1CC(n2cc(F)c(=O)[nH]c2=O)OC1CO)C1CCCN1 (stereo not shown) [3′-O-prolyl-Floxuridine] | > 20 |  |  |  |  | 
O=C(OCC1OC(n2cc(F)c(=O)[nH]c2=O)CC1O)C1CCCN1 (stereo not shown) [5′-O-prolyl-Floxuridine] | > 20 |  |  |  |  | 
